Columns and labels:
[1] = molecular target: T1, type 1 ryanodine receptor (RyR1) (Oryctolagus cuniculus, UniProt P11716); experiment: intracellular calcium assay in HEK […] stable cell lines; selective over M4000F, RyR2, RyR3; assay type: cell-based; parameters: full-length rabbit RyR1(WT)
[2] = molecular target: T1, type 1 ryanodine receptor (RyR1); experiment: intracellular calcium assay in HEK […] stable cell line; compared with M4000F; assay type: cell-based; parameters: full-length rabbit RyR1(WT)
[3] = molecular target: T1, type 1 ryanodine receptor (RyR1); experiment: intracellular calcium assay in HEK […] cells with RyR1 WT and point mutants; assay type: cell-based; parameters: full-length rabbit RyR1
[4] = molecular target: T1, type 1 ryanodine receptor (RyR1); experiment: cell-based; parameters: full-length rabbit RyR1; species or system HEK 293; fluorescent calcium indicator assay, peak Fmax/F0, tetracycline-induced RyR1 expression, 384-well plate
Procedure: There are three isoforms of RyRs in mammals (RyR1, RyR2, and RyR3). To systematically examine the pharmacological properties of each isoform, we used HEK 293 cell lines that express rabbit isoforms under tetracycline regulation. These cells were seeded in a 384-well plate and subjected to an assay in which the intracellular calcium levels were measured using a fluorescent calcium indicator upon drug administration (Fig 1B and 1C). While caffeine is a stimulant that antagonizes the adenosine receptors (IC50s on adenosine receptors are ~10 μM), it is also a typical agonist of RyRs activating all isoforms at higher dosages. Caffeine administration caused dose-dependent increases in intracellular calcium levels depending on the tetracycline-mediated expression of each isoform (Figs 1D–1F and S1A). We observed that, while caffeine causes calcium elevation in the nonexpressed controls, most likely due to the presence of endogenous RyRs in HEK 293 cells, the distinct signals in the expressed conditions indicate that each isoform is successfully expressed as functional channels. Supplementary file pbio.3003172.s001.pdf: S1 Fig Increased intracellular calcium by isoflurane is derived from intracellular calcium stores. […] Each agent was given after measuring the baseline fluorescence for 10 s, as indicated by arrows. […]

[5] = molecular target: T1, type 1 ryanodine receptor (RyR1); experiment: intracellular calcium assay in HEK […] cells; selectivity over M4000F; assay type: cell-based; parameters: full-length rabbit RyR1
[6] = molecular target: T1, type 1 ryanodine receptor (RyR1); experiment: intracellular calcium assay in HEK […] cells; caffeine-site point mutants; assay type: cell-based; parameters: full-length rabbit RyR1
[7] = molecular target: T1, type 1 ryanodine receptor (RyR1); experiment: intracellular calcium assay in HEK […] stable cell line; assay type: cell-based; parameters: full-length rabbit RyR1
[8] = molecular target: T1, type 1 ryanodine receptor (RyR1); experiment: intracellular calcium (Cal-520) assay in HEK […] cells with tetracycline-induced RyR1; chimeras and point mutants; assay type: cell-based; parameters: full-length rabbit RyR1; RyR1 Q3889-S4213 necessary and sufficient for the response
[9] = molecular target: T2, mouse RyR1(WT) (Mus musculus, UniProt E9PZQ0); experiment: intracellular calcium assay in HEK […] cells; response lost in M4003F; assay type: cell-based
T2 construct: full-length mouse RyR1

[10] = molecular target: T1, type 1 ryanodine receptor (RyR1); experiment: intracellular calcium assay in HEK […] stable cell line; response lost in M4000F; assay type: cell-based; parameters: full-length rabbit RyR1

T1 sequence (P11716 whole entry): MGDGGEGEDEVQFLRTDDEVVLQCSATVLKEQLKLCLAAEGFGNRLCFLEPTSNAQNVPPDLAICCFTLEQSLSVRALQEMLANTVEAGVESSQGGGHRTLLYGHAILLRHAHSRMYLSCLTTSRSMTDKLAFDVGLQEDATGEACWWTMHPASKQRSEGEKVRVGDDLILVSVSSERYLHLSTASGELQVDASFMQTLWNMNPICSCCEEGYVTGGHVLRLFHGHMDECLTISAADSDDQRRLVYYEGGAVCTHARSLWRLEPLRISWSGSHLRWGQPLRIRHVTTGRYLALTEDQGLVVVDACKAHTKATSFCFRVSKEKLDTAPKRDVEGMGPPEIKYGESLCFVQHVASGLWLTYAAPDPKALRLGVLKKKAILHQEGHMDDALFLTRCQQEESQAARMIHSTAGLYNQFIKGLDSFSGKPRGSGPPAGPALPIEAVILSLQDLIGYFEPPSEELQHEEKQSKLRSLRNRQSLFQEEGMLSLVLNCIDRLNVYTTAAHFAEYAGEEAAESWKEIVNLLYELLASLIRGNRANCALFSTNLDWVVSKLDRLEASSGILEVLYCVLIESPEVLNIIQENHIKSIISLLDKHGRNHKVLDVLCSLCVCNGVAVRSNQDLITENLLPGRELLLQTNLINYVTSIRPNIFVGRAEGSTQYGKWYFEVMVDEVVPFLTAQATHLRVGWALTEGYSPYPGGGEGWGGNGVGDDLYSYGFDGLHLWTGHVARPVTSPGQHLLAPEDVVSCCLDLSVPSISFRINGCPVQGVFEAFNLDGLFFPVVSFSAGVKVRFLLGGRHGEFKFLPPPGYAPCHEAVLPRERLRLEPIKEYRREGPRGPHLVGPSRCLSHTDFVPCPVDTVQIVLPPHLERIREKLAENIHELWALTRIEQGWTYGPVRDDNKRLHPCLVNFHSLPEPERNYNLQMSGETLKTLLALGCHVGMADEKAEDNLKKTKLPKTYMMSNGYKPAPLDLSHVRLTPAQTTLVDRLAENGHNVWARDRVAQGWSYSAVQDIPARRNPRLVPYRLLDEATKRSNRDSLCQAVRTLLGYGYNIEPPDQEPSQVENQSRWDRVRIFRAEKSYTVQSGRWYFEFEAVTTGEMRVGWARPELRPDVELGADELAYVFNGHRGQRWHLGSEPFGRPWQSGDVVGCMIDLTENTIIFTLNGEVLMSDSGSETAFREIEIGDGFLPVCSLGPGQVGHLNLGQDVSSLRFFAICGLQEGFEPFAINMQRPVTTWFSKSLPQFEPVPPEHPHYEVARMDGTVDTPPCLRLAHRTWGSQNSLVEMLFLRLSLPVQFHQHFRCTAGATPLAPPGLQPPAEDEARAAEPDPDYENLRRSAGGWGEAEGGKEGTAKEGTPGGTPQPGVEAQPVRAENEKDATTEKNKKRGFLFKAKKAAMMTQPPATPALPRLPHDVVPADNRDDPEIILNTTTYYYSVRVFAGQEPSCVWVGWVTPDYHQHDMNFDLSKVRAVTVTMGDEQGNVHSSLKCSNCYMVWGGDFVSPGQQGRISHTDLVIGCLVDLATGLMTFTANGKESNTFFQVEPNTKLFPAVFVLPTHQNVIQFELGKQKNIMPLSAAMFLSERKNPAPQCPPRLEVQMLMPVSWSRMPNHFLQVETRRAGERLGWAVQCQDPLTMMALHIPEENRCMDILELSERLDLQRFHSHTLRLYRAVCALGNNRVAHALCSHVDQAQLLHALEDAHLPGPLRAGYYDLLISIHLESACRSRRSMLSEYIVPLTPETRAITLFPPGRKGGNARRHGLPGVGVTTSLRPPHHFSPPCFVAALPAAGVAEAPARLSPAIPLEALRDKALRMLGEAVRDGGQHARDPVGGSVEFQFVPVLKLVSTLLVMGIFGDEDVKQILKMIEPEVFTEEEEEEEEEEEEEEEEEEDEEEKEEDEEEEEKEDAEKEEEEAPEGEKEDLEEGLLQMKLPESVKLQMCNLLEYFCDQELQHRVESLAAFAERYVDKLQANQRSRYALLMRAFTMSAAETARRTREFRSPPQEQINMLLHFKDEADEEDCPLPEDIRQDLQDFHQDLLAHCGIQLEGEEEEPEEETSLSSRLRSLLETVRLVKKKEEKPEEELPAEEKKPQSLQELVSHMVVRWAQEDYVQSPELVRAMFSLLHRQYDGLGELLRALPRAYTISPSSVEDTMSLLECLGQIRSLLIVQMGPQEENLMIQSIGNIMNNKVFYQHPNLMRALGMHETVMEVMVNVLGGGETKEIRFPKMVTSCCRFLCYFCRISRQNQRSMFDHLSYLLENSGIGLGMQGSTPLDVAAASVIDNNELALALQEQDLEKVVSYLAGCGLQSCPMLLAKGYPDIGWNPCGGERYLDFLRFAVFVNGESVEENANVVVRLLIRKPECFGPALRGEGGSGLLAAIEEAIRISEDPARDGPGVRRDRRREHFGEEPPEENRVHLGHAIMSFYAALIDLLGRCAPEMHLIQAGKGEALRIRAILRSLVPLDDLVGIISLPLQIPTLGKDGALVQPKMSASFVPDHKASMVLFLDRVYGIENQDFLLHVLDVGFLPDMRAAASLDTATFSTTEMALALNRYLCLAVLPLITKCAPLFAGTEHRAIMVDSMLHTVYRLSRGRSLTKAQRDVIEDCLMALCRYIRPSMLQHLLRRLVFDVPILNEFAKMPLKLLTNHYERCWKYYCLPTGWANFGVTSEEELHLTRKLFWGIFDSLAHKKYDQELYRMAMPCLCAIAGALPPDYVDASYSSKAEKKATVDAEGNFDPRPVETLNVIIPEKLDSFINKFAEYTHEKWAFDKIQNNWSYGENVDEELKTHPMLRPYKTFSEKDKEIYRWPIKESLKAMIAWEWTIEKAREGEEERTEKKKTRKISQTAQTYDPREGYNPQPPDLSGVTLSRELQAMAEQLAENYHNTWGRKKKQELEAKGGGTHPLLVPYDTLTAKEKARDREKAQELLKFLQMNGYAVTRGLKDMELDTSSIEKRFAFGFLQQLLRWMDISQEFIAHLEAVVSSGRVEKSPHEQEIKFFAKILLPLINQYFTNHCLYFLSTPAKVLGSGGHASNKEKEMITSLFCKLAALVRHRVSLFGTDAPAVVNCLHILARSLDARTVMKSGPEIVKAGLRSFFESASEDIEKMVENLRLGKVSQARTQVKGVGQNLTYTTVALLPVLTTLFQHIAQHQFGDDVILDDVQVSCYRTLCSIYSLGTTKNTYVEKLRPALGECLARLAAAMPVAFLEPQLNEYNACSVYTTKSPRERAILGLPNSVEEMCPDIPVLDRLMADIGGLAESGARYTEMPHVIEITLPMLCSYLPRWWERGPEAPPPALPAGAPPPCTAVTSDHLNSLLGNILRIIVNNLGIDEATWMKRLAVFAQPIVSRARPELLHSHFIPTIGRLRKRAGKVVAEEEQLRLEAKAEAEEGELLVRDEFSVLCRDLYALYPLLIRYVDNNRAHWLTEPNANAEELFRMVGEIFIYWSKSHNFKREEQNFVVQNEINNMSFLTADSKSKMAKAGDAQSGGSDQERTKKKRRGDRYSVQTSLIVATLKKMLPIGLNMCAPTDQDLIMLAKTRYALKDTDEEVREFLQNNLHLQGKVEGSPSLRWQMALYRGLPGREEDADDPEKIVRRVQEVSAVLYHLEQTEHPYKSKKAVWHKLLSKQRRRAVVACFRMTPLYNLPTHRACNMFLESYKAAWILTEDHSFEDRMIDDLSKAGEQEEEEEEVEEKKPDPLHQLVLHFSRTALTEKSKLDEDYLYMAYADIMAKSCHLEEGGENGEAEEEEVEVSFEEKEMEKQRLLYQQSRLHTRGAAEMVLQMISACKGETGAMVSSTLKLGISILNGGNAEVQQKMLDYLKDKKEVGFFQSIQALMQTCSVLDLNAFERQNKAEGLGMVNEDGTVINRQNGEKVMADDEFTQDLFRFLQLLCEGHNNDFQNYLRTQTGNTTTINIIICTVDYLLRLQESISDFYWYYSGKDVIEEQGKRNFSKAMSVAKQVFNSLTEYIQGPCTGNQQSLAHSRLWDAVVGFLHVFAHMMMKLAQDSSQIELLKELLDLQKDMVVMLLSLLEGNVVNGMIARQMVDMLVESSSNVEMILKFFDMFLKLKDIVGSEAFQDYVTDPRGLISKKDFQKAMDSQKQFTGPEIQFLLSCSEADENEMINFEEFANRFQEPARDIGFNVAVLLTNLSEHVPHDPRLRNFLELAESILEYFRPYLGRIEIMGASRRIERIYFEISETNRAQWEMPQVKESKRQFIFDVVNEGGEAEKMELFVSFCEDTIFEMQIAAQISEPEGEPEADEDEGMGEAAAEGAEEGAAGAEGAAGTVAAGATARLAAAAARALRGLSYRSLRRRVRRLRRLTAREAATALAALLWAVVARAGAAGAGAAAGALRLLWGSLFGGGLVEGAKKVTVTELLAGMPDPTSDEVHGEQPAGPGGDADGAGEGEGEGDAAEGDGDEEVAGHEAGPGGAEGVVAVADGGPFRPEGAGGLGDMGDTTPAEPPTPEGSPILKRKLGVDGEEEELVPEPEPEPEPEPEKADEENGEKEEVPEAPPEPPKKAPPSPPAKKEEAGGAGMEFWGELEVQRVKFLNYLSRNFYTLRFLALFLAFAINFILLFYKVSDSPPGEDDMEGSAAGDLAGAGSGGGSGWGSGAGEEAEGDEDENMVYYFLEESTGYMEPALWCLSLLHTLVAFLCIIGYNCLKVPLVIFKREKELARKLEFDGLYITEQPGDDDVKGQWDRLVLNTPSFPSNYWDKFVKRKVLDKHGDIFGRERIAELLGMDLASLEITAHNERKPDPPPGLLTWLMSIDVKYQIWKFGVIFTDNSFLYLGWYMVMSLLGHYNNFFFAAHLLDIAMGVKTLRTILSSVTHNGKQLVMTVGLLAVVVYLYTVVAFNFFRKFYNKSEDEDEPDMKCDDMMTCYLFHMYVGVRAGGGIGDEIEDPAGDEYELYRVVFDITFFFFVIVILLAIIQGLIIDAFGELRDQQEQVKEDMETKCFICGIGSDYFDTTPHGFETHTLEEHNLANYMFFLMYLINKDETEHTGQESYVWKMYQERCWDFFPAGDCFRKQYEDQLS

SMILES: Oc1cccc(Br)c1 [3-BP, 3-bromophenol]
- intracellular calcium assay in HEK 293 stable cell lines; selective over M4000F, [1]: 3-bromophenol (3-BP) has higher selectivity for RyR1(WT) than RyR1(M4000F), RyR2, or RyR3

SMILES: Oc1ccc(Br)cc1 [4-BP, 4-bromophenol]
- EC50 [2]: 4.7 µM

SMILES: Cc1cc(O)ccc1Cl [4-CmC, 4-chloro-m-cresol]
- intracellular calcium assay in HEK 293T cells with RyR1 WT and point mutants [3]: substitution of phenylalanine with alanine (F4062A) substantially reduced the sensitivities to both 4-CmC and isoflurane

SMILES: CCc1ccc(O)cc1 [4-EP, 4-ethylphenol]
- EC50 [4]: 24 µM

SMILES: Cc1ccc(O)cc1 [4-MP, 4-methylphenol]
- EC50 [4]: 31 µM
- intracellular calcium assay in HEK 293 cells; selectivity over M4000F [5]: 4-methylphenol (4-MP) and 4-ethylphenol (4-EP), phenolic chemicals with a methyl or ethyl residue

SMILES: Cn1c(=O)c2c(ncn2C)n(C)c1=O [caffeine]
- intracellular calcium assay in HEK 293 cells; caffeine-site point mutants [6]: RyR1(W4716I), RyR1(W4716L), and RyR1(F3753A) were insensitive to caffeine but were activated by isoflurane

SMILES: FC(F)(F)C(Cl)Br (centres unmarked) [halothane]
- EC50 [7]: 288 µM

SMILES: FC(F)OC(Cl)C(F)(F)F (centres unmarked) [isoflurane]
- EC50 [8]: 203 µM
- intracellular calcium assay in HEK 293 cells; response lost in M4003F [9]: mouse RyR1(WT) was sensitive to isoflurane, as expected, whereas mouse RyR1(M4003F) was not activated by isoflurane

SMILES: FCOC(C(F)(F)F)C(F)(F)F [sevoflurane]
- intracellular calcium assay in HEK 293 stable cell line; response lost in M4000F [10]: sevoflurane, an inhaled anesthetic with clinical use, activated RyR1 but not RyR2 and RyR3

Source: article PMC12132946, “Isoflurane activates the type 1 ryanodine receptor to induce anesthesia in mice” (PLOS Biology, 2025)
